Consider 28 molecules from patent publication US9637473B2, “Acrylamide derivatives as antimalarial agents” (priority 2013, dated 2017).

Each structure is given as a SMILES string. Structures can show the parent of a compound that is named as a salt.

The assay concerns P. Falciparum NF54. Briefly: Plasmodium falciparum in vitro assay ([3H]-hypoxanthine incorporation). The following applies: Plasmodium falciparum, Erythrocyte, P. Falciparum NF54, erythrocytic stages in human red blood cells, 50% human serum. Format: cell-based. In a few lines: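 This in vitro antimalarial assay used P. falciparum erythrocytic stages cultured in human erythrocytes and measured [3H]-hypoxanthine incorporation. Radioactivity on the dried filters, placed in plastic foil with 10 mL scintillation fluid, was counted in a Betaplate liquid scintillation counter. Sigmoidal inhibition curves built in Microsoft Excel gave the IC50.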
Regarding `Cc1cc(Nc2ccc(CN(C(=O)/C=C/c3ccc(C(F)(F)F)cc3)[C@H]3CCCN(C(C)C)C3)cn2)ccn1` [Example 120, (E)-N-((S)-1-Isopropyl-piperidin-3-yl)-N-[6-(2-methyl-pyridin-4-ylamino)-pyridin-3-ylmethyl]-3-(4-trifluoromethyl-phenyl)-acrylamide], the IC50 came out at 90 nM. Turning to `Cc1cc(N(C)c2cccc(CN(C(=O)/C=C/c3ccc(C(F)(F)F)cc3)C3CCN(C(C)C)CC3)c2)ccn1` [Example 121, (E)-N-(1-Isopropyl-piperidin-4-yl)-N-{3-[methyl-(2-methyl-pyridin-4-yl)-amino]-benzyl}-3-(4-trifluoromethyl-phenyl)-acrylamide formate], the half-maximal inhibitory concentration (IC50) was determined as 76 nM. The molecule `Cc1cc(Nc2cccc(CN(C(=O)/C=C/c3ccc(C(F)(F)F)cc3)C3CCN(C(C)C)CC3)c2)ccn1` [Example 122, (E)-N-(1-Isopropyl-piperidin-4-yl)-N-[3-(2-methyl-pyridin-4-ylamino)-benzyl]-3-(4-trifluoromethyl-phenyl)-acrylamide formate] returned an IC50 of 43 nM. To `Cc1cnccc1Nc1cccc(CN(C(=O)/C=C/c2ccc(C(F)(F)F)cc2)C2CCN(C(C)C)CC2)c1` [Example 123, (E)-N-(1-Isopropyl-piperidin-4-yl)-N-[3-(3-methyl-pyridin-4-ylamino)-benzyl]-3-(4-trifluoromethyl-phenyl)-acrylamide formate] belongs 21 nM; to `CC(C)N1CCC(N(Cc2cccc(Nc3ccncc3F)c2)C(=O)/C=C/c2ccc(C(F)(F)F)cc2)CC1` [Example 124, (E)-N-[3-(3-Fluoro-pyridin-4-ylamino)-benzyl]-N-(1-isopropyl-piperidin-4-yl)-3-(4-trifluoromethyl-phenyl)-acrylamide formate], 303 nM. For `CC(C)N1CCC(N(Cc2cccc(Nc3ccncn3)c2)C(=O)/C=C/c2ccc(C(F)(F)F)cc2)CC1` [Example 125, (E)-N-(1-Isopropyl-piperidin-4-yl)-N-[3-(pyrimidin-4-ylamino)-benzyl]-3-(4-trifluoromethyl-phenyl)-acrylamide formate], half-maximal inhibition (IC50) was put at 340 nM. Molecule `CC(C)N1CCC(N(Cc2cccc(Nc3ccncc3)c2)C(=O)/C=C/c2ccc(C(F)(F)F)cc2)CC1` [Example 126, (E)-N-(1-Isopropyl-piperidin-4-yl)-N-[3-(pyridin-4-ylamino)-benzyl]-3-(4-trifluoromethyl-phenyl)-acrylamide formate] came in with a concentration for half-maximal inhibition (IC50) of 30 nM. Molecule `CC(C)N1CCC(N(Cc2cccc(N(C)c3ccncc3)n2)C(=O)/C=C/c2ccc(C(F)(F)F)cc2)CC1` [Example 127, (E)-N-(1-Isopropyl-piperidin-4-yl)-N-[6-(methyl-pyridin-4-yl-amino)-pyridin-2-ylmethyl]-3-(4-trifluoromethyl-phenyl)-acrylamide formate] had an IC50 of 184 nM.

`Cc1cc(N(C)c2cccc(CN(C(=O)/C=C/c3ccc(C(F)(F)F)cc3)C3CCN(C(C)C)CC3)n2)ccn1` [Example 128, (E)-N-(1-Isopropyl-piperidin-4-yl)-N-{6-[methyl-(2-methyl-pyridin-4-yl)-amino]-pyridin-2-ylmethyl}-3-(4-trifluoromethyl-phenyl)-acrylamide formate] had an IC50 of 302 nM. In turn, `Cc1cc(Nc2cccc(CN(C(=O)/C=C/c3ccc(C(F)(F)F)cc3)C3CCN(C(C)C)CC3)n2)ccn1` [Example 129, (E)-N-(1-Isopropyl-piperidin-4-yl)-N-[6-(2-methyl-pyridin-4-ylamino)-pyridin-2-ylmethyl]-3-(4-trifluoromethyl-phenyl)-acrylamide formate] gave a half-maximal inhibitory concentration (IC50) of 21 nM. In turn, `Cc1cnccc1Nc1cccc(CN(C(=O)/C=C/c2ccc(C(F)(F)F)cc2)C2CCN(C(C)C)CC2)n1` [Example 130, (E)-N-(1-Isopropyl-piperidin-4-yl)-N-[6-(3-methyl-pyridin-4-ylamino)-pyridin-2-ylmethyl]-3-(4-trifluoromethyl-phenyl)-acrylamide formate] gave an IC50 of 42 nM. The molecule `CC(C)N1CCC(N(Cc2cccc(Nc3ccncc3F)n2)C(=O)/C=C/c2ccc(C(F)(F)F)cc2)CC1` [Example 131, (E)-N-[6-(3-Fluoro-pyridin-4-ylamino)-pyridin-2-ylmethyl]-N-(1-isopropyl-piperidin-4-yl)-3-(4-trifluoromethyl-phenyl)-acrylamide formate] registered an IC50 of 303 nM. For `CC(C)N1CCC(N(Cc2cccc(Nc3ccncc3)n2)C(=O)/C=C/c2ccc(C(F)(F)F)cc2)CC1` [Example 132, (E)-N-(1-Isopropyl-piperidin-4-yl)-N-[6-(pyridin-4-ylamino)-pyridin-2-ylmethyl]-3-(4-trifluoromethyl-phenyl)-acrylamide formate], the IC50 worked out at 22 nM.

`CC(C)N1CCC(N(Cc2cncc(N(C)c3ccncc3)c2)C(=O)/C=C/c2ccc(C(F)(F)F)cc2)CC1` [Example 133, (E)-N-(1-Isopropyl-piperidin-4-yl)-N-[5-(methyl-pyridin-4-yl-amino)-pyridin-3-ylmethyl]-3-(4-trifluoromethyl-phenyl)-acrylamide formate] had an IC50 of 69 nM. The molecule `CC(C)N1CCC(N(Cc2cncc(N(C)c3cccnc3)c2)C(=O)/C=C/c2ccc(C(F)(F)F)cc2)CC1` [Example 134, (E)-N-(1-Isopropyl-piperidin-4-yl)-N-[5-(methyl-pyridin-3-yl-amino)-pyridin-3-ylmethyl]-3-(4-trifluoromethyl-phenyl)-acrylamide formate] returned an IC50 of 213 nM. In turn, `Cc1cc(N(C)c2cncc(CN(C(=O)/C=C/c3ccc(C(F)(F)F)cc3)C3CCN(C(C)C)CC3)c2)ccn1` [Example 135, (E)-N-(1-Isopropyl-piperidin-4-yl)-N-{5-[methyl-(2-methyl-pyridin-4-yl)-amino]-pyridin-3-ylmethyl}-3-(4-trifluoromethyl-phenyl)-acrylamide formate] had an IC50 of 84 nM. With `Cc1cc(Nc2cncc(CN(C(=O)/C=C/c3ccc(C(F)(F)F)cc3)C3CCN(C(C)C)CC3)c2)ccn1` [Example 136, (E)-N-(1-Isopropyl-piperidin-4-yl)-N-[5-(2-methyl-pyridin-4-ylamino)-pyridin-3-ylmethyl]-3-(4-trifluoromethyl-phenyl)-acrylamide formate], the IC50 turned out to be 80 nM. To `Cc1cnccc1Nc1cncc(CN(C(=O)/C=C/c2ccc(C(F)(F)F)cc2)C2CCN(C(C)C)CC2)c1` [Example 137, (E)-N-(1-Isopropyl-piperidin-4-yl)-N-[5-(3-methyl-pyridin-4-ylamino)-pyridin-3-ylmethyl]-3-(4-trifluoromethyl-phenyl)-acrylamide formate] belongs 47 nM. For `CC(C)N1CCC(N(Cc2cncc(Nc3ccncc3F)c2)C(=O)/C=C/c2ccc(C(F)(F)F)cc2)CC1` [Example 138, (E)-N-[5-(3-Fluoro-pyridin-4-ylamino)-pyridin-3-ylmethyl]-N-(1-isopropyl-piperidin-4-yl)-3-(4-trifluoromethyl-phenyl)-acrylamide formate], half-maximal inhibition (IC50) required 344 nM.

On to `CC(C)N1CCC(N(Cc2cncc(Nc3ccncn3)c2)C(=O)/C=C/c2ccc(C(F)(F)F)cc2)CC1` [Example 139, (E)-N-(1-Isopropyl-piperidin-4-yl)-N-[5-(pyrimidin-4-ylamino)-pyridin-3-ylmethyl]-3-(4-trifluoromethyl-phenyl)-acrylamide formate], for which the IC50 is 355 nM. Then `CC(C)N1CCC(N(Cc2cncc(N(C)c3ccccn3)c2)C(=O)/C=C/c2ccc(C(F)(F)F)cc2)CC1` [Example 140, (E)-N-(1-Isopropyl-piperidin-4-yl)-N-[5-(methyl-pyridin-2-yl-amino)-pyridin-3-ylmethyl]-3-(4-trifluoromethyl-phenyl)-acrylamide formate], with 354 nM; and `CC(C)N1CCC(N(Cc2cncc(Nc3ccncc3)c2)C(=O)/C=C/c2ccc(C(F)(F)F)cc2)CC1` [Example 141, (E)-N-(1-Isopropyl-piperidin-4-yl)-N-[5-(pyridin-4-ylamino)-pyridin-3-ylmethyl]-3-(4-trifluoromethyl-phenyl)-acrylamide formate], with 82 nM. As to `CC(C)N1CCC(N(Cc2cccc(N(C)c3ccncc3)c2)C(=O)/C=C/c2ccc(C(F)(F)F)cc2)CC1` [Example 142, (E)-N-(1-Isopropyl-piperidin-4-yl)-N-[3-(methyl-pyridin-4-yl-amino)-benzyl]-3-(4-trifluoromethyl-phenyl)-acrylamide formate], half-maximal inhibition (IC50) required 27 nM.

The molecule `CC(C)Oc1ccc(/C=C/C(=O)N(Cc2ccc(N(C)c3ccncc3)cc2)C2CCN(Cc3ccccc3)CC2)cc1` [Example 143, (E)-N-(1-Benzyl-piperidin-4-yl)-3-(4-isopropoxy-phenyl)-N-[4-(methyl-pyridin-4-yl-amino)-benzyl]-acrylamide] yielded an IC50 of 102 nM.

Take `CN(c1ccncc1)c1ccc(CN(C(=O)/C=C/c2ccc(C(C)(C)C)cc2)C2CCN(Cc3ccccc3)CC2)cc1` [Example 144, (E)-N-(1-Benzyl-piperidin-4-yl)-3-(4-tert-butyl-phenyl)-N-[4-(methyl-pyridin-4-yl-amino)-benzyl]-acrylamide]: the IC50 came out at 174 nM.

For `CN(c1ccncc1)c1ccc(CN(C(=O)/C=C/c2ccc(OC(F)F)cc2)C2CCN(Cc3ccccc3)CC2)cc1` [Example 145, (E)-N-(1-Benzyl-piperidin-4-yl)-3-(4-difluoromethoxy-phenyl)-N-[4-(methyl-pyridin-4-yl-amino)-benzyl]-acrylamide], half-maximal inhibition (IC50) required 69 nM. On to `CN(c1ccncc1)c1ccc(CN(C(=O)/C=C/c2ccc(OC(F)(F)F)cc2)C2CCN(Cc3ccccc3)CC2)cc1` [Example 146, (E)-N-(1-Benzyl-piperidin-4-yl)-N-[4-(methyl-pyridin-4-yl-amino)-benzyl]-3-(4-trifluoromethoxy-phenyl)-acrylamide], for which inhibition was half-maximal at 48 nM (IC50).

In the case of `CCc1ccc(/C=C/C(=O)N(Cc2ccc(N(C)c3ccncc3)cc2)C2CCN(Cc3ccccc3)CC2)cc1` [Example 147, (E)-N-(1-Benzyl-piperidin-4-yl)-3-(4-ethyl-phenyl)-N-[4-(methyl-pyridin-4-yl-amino)-benzyl]-acrylamide], the IC50 came to 157 nM.
